Molecular target: T1, Smc1/Smc3 heterodimer with Scc1-C (cohesin) (Saccharomyces cerevisiae, UniProt P32908+P47037, P32908:K39I, form not given)
T1 construct: N-terminal tags; Sf9 insect cells; fluorescently labelled for MST; with Sister chromatid cohesion protein 1
T1 sequence (P32908 1-1225 K39I): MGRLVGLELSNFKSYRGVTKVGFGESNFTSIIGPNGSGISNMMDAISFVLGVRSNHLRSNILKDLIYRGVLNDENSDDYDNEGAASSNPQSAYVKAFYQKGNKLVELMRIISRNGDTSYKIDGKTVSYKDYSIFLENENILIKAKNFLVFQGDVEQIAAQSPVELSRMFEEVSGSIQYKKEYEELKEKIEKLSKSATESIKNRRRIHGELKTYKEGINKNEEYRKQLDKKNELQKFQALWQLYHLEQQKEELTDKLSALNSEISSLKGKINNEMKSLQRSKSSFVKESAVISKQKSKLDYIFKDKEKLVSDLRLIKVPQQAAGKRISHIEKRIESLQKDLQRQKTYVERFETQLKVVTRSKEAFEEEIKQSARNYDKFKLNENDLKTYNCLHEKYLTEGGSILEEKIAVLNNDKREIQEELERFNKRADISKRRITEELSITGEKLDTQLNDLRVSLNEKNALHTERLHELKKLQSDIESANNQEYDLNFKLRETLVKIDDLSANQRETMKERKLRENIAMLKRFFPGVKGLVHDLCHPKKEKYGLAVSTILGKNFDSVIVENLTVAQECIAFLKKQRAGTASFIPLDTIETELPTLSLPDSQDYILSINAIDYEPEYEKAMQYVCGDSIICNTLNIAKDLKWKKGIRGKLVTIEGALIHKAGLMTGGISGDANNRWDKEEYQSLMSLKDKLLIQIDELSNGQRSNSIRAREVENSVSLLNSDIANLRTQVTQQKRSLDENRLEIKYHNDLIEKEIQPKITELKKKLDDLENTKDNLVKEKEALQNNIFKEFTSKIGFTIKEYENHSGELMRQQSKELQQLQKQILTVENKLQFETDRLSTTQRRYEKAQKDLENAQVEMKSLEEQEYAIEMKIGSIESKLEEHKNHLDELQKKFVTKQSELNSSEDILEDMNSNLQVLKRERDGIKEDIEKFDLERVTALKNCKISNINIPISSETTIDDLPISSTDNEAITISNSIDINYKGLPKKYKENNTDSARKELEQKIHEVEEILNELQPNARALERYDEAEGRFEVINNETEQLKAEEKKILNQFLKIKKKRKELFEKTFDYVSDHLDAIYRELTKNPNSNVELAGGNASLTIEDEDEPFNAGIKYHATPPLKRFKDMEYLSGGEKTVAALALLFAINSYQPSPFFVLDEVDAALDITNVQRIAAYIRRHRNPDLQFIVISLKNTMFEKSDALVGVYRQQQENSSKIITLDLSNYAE
T1 sequence (P47037 1-1230): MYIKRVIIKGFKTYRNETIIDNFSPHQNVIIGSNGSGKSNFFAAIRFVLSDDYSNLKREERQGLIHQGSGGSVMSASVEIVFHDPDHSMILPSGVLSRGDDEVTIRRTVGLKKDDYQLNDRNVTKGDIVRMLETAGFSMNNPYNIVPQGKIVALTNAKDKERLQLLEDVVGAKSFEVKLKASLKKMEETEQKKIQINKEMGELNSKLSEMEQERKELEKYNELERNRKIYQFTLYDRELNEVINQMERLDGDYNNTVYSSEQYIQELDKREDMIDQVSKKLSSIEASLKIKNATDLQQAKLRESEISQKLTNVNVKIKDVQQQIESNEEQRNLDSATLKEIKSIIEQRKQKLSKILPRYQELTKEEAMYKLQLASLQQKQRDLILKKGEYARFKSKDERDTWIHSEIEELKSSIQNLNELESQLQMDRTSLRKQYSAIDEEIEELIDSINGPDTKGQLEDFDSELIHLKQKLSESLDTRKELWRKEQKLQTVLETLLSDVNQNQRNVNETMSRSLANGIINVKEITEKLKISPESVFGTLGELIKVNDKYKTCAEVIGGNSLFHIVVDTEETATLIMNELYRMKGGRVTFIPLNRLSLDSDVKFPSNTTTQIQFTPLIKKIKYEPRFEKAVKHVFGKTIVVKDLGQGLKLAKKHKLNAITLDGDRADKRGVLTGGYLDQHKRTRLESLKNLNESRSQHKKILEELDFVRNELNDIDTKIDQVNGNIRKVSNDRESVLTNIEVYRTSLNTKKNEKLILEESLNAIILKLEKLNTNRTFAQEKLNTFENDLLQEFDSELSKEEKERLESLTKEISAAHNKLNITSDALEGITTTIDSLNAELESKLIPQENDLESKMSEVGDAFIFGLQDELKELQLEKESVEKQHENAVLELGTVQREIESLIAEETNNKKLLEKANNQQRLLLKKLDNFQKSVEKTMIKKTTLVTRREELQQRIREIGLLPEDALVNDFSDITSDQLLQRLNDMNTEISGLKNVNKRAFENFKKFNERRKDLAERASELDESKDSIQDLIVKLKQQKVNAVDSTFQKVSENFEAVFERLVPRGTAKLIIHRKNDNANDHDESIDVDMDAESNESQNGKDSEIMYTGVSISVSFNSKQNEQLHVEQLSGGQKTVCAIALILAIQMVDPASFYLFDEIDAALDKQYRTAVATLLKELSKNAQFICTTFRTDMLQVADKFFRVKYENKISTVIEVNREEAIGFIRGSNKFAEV
T1 sequence (Q12158 1-566 partner): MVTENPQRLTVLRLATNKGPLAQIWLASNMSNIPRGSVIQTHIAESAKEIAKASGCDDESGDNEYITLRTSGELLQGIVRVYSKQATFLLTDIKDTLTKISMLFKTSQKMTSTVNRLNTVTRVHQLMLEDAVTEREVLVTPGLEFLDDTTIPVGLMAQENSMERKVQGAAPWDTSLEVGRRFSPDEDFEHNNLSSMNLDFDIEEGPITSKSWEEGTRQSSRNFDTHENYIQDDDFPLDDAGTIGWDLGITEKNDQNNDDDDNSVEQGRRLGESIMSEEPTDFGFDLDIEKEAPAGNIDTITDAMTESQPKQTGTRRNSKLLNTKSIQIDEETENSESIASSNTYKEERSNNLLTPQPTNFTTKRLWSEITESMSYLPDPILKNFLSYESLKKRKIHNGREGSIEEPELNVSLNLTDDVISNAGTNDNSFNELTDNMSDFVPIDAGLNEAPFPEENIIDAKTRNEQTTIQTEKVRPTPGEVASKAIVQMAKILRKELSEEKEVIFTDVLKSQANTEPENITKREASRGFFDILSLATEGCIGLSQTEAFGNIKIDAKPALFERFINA
Experiment: microscale thermophoresis
Settings: fluorescently labelled protein; Smc1 co-purified with Scc1-C, plus Smc3; binding abrogated

| SMILES | microscale thermophoresis |
| --- | --- |
| Nc1ncnc2c1ncn2[C@@H]1O[C@H](COP(=O)(O)OP(=O)(O)O)[C@@H](O)[C@H]1O [ADP] | each of the Walker A mutations efficiently abrogated binding to ATP and ADP |
| Nc1ncnc2c1ncn2[C@@H]1O[C@H](COP(=O)(O)OP(=O)(O)OP(=O)(O)O)[C@@H](O)[C@H]1O [ATP] | each of the Walker A mutations efficiently abrogated binding to ATP and ADP |

Source: paper PMC4769319, “Cohesin Releases DNA through Asymmetric ATPase-Driven Ring Opening” (Molecular Cell, 2016)
